Results taken from PMC9416487, “Comprehensive Evaluation of the Quality of Tripterygium Glycosides Tablets Based on Multi-Component Quantification Combined with an In Vitro Biological Assay” (Molecules, 2022).

Experiments:
[1] = test system: RAW 264.7 cells; test: Cytotoxicity against RAW 264.7 cells (CCK-8 method); conditions: for Cytotoxicity TC50 / Therapeutic Index (TI, = TC50/IC50): investigated compounds; for Cytotoxicity TC50: 24 h, CCK-8
Description: Cells were cultured at 37 °C in a humidified air incubator with 5% CO2 in Dulbecco’s modified Eagle’s medium (DMEM; Gibco, Grand Island, NY, USA) supplemented with 10% fetal bovine serum (FBS; Gibco, USA), 100 units/mL penicillin and 100 µg/mL streptomycin (Gibco, USA).
RAW 264.7 cells (5.0 × 10^4 cells/well) were seeded into a 96-well plate. After overnight incubation, various concentrations of TGT or target compound were applied to the cells, which were then incubated for 24 h. The same volume of DMSO was added to the compound-untreated group to account for any effects of DMSO on cell viability. Then, the culture medium was removed, 100 μL DMEM medium plus 10 μL CCK-8 reagent (MCE, Suzhou, China) was added, and the cells were incubated for another 2 h at 37 °C in a 5% CO2 incubator. Absorbance at 450 nm was read using a microplate reader, and cell viability was calculated as the percentage of absorbance of various concentrations versus the control group.

[2] = test system: NO production in LPS-induced RAW 264.7 cells; test: Inhibitory effect on NO production in LPS-induced RAW 264.7 cells (Griess reagent); format: cell-based; conditions: for IC50: Mus musculus, RAW264.7; for IC50 / NO Inhibitory Effect IC50: investigated compounds, LPS (1 µg/mL)-induced RAW 264.7 cells, 24 h
Description: The culture medium was replaced with DMEM medium containing various concentrations of TGT or target compound, subsequently treated with LPS (1 µg/mL), and then incubated for 24 h. After 50 µL of cultured medium was transferred to a new 96-well plate, 50 µL of Griess reagent was added to each well. The absorbance at 540 nm was determined using a microplate reader (PerkinElmer, Waltham, MA, USA). The concentration of NO in the culture supernatants was calculated by using a standard curve of nitrite, a major stable product of NO, which was generated according to the application instructions for the Griess reagent.

[3] = design: method as in PMID 29787994; conditions: reported in the literature ref [20]; cited from earlier work

Row | SMILES | Cytotoxicity TC50 [1] | IC50 [2] [µM] | other results
1 | C[C@@]1(O)C[C@@]23CC[C@H]4[C@@]5(CCC[C@]4(C)C(=O)OC5)[C@@H]2CC[C@H]1C3 [tripterifordin] | w ^b (had weak NO inhibitory effect or cytotoxicity with an NO production rate less than 50% or the cell viability more than 50% at a concentration of 50 μM) | > 50 | –
2 | CC(=O)OC[C@]12[C@H](OC(C)=O)[C@H](OC(C)=O)[C@@H]3[C@@H](OC(C)=O)[C@@]14O[C@@]3(C)COC(=O)c1cccnc1CCC(C)C(=O)O[C@@H]([C@H](OC(=O)c1ccco1)[C@@H]2OC(C)=O)[C@]4(C)O (stereo partly shown) [wilforgine] | w (had weak NO inhibitory effect or cytotoxicity with an NO production rate less than 50% or the cell viability more than 50% at a concentration of 50 μM) | – | NO Inhibitory Effect IC50 [2]: w (had weak NO inhibitory effect or cytotoxicity with an NO production rate less than 50% or the cell viability more than 50% at a concentration of 50 μM)
3 | CC(C)C1=CC(=O)C2=C(CC[C@H]3[C@@](C)(CO)C(=O)CC[C@]23C)C1=O [triptoquinone B] | 0.11 µM | 35.6 | Therapeutic Index (TI, = TC50/IC50) [1]: 0.0031
4 | CC(C)[C@]12O[C@H]1[C@@H]1O[C@]13[C@]1(O[C@H]1C[C@H]1C4=C(CC[C@@]13C)C(=O)OC4)[C@@H]2O [triptolide] | 0.071 µM | 0.066 | Therapeutic Index (TI, = TC50/IC50) [1]: 1.08
5 | CC(=O)OCC12C(OC(C)=O)C(OC(C)=O)C3C(O)C14OC3(C)COC(=O)c1cccnc1C(C)C(C)C(=O)OC(C(OC(C)=O)C2OC(C)=O)C4(C)O (stereo not shown) [neoeunymine] | nu (Had no NO inhibitory effect or cytotoxicity with an NO production rate less than 0 or cell viability more than 100% at a concentration of 50 μM) | > 50 | –
6 | CC(=O)OCC12C(OC(C)=O)C(OC(C)=O)C3C(OC(C)=O)C14OC3(C)COC(=O)c1cccnc1CCC(C)(OC(=O)c1ccccc1)C(=O)OC(C(OC(C)=O)C2OC(C)=O)C4(C)O (stereo not shown) [wilfornine A] | w (had weak NO inhibitory effect or cytotoxicity with an NO production rate less than 50% or the cell viability more than 50% at a concentration of 50 μM) | – | NO Inhibitory Effect IC50 [2]: w (had weak NO inhibitory effect or cytotoxicity with an NO production rate less than 50% or the cell viability more than 50% at a concentration of 50 μM)
7 | CC1=C(O)C(=O)C=C2C1=CC=C1[C@@]2(C)CC[C@@]2(C)[C@@H]3C[C@](C)(C(=O)O)CC[C@]3(C)CC[C@]12C [celastrol] | 1.72 µM | 0.56 | Therapeutic Index (TI, = TC50/IC50) [1]: 3.07
8 | CC(=O)OC[C@]12[C@H](OC(C)=O)[C@H](OC(C)=O)[C@@H]3[C@@H](OC(C)=O)[C@@]14O[C@@]3(C)COC(=O)c1cccnc1C(C)C(C)C(=O)O[C@@H]([C@H](OC(C)=O)[C@@H]2OC(C)=O)[C@]4(C)O (stereo partly shown) [euonymine] | nu (Had no NO inhibitory effect or cytotoxicity with an NO production rate less than 0 or cell viability more than 100% at a concentration of 50 μM) | > 50 | –
9 | CC1(C)[C@@H](O)CC[C@]2(C)[C@H]3CC=C4[C@@H]5C[C@@]6(C)C[C@H](OC6=O)[C@]5(C)CC[C@@]4(C)[C@]3(C)CC[C@@H]12 [wilforlide A] | nu (Had no NO inhibitory effect or cytotoxicity with an NO production rate less than 0 or cell viability more than 100% at a concentration of 50 μM) | > 50 | cytotoxicity / influence on cell viability, in words ([1]; up to 50 μM): negligible; oral bioavailability [3]: extremely low; NO inhibitory effect / anti-inflammatory activity, in words ([2]; LPS-induced RAW 264.7 cells, up to 50 μM): negligible anti-inflammatory activity
10 | C[C@@]1(C(=O)O)CC[C@]2(C)CC[C@]3(C)C4=CC(=O)c5c(cc(O)c(O)c5C=O)[C@]4(C)CC[C@@]3(C)[C@@H]2C1 [demethylzeylasteral] | 27.59 µM | 3.48 | Therapeutic Index (TI, = TC50/IC50) [1]: 7.93
11 | CC(C)c1ccc2c(c1O)CC[C@H]1C3=C(CC[C@]21C)C(=O)OC3 [triptophenolide] | – | 43.1 | –
12 | CC(=O)OCC12C(OC(C)=O)C(OC(C)=O)C3C(OC(C)=O)C14OC3(C)COC(=O)c1cnccc1C(C)C(C)C(=O)OC(C(OC(C)=O)C2OC(C)=O)C4(C)O (stereo not shown) [peritassine A] | nu (Had no NO inhibitory effect or cytotoxicity with an NO production rate less than 0 or cell viability more than 100% at a concentration of 50 μM) | > 50 | –
13 | CC(=O)OC[C@]12[C@H](OC(C)=O)[C@H](OC(C)=O)[C@@H]3[C@@H](OC(C)=O)[C@@]14O[C@@]3(C)COC(=O)c1cccnc1CCC(C)(O)C(=O)O[C@@H]([C@H](OC(=O)c1ccco1)[C@@H]2OC(C)=O)[C@]4(C)O (stereo partly shown) [wilfortrine] | nu (Had no NO inhibitory effect or cytotoxicity with an NO production rate less than 0 or cell viability more than 100% at a concentration of 50 μM) | > 50 | –
14 | CC(=O)OC[C@]12[C@H](OC(C)=O)[C@H](OC(C)=O)[C@@H]3[C@@H](OC(C)=O)[C@@]14O[C@@]3(C)COC(=O)c1cccnc1CCC(C)C(=O)O[C@@H]([C@H](OC(=O)c1ccccc1)[C@@H]2OC(C)=O)[C@]4(C)O (stereo partly shown) [wilforine] | w (had weak NO inhibitory effect or cytotoxicity with an NO production rate less than 50% or the cell viability more than 50% at a concentration of 50 μM) | – | NO Inhibitory Effect IC50 [2]: w (had weak NO inhibitory effect or cytotoxicity with an NO production rate less than 50% or the cell viability more than 50% at a concentration of 50 μM)
